In publication PMC5904360, “Soluble N-Ethylmaleimide-Sensitive Factor Attachment Protein Receptor-Derived Peptides for Regulation of Mast Cell Degranulation” (Frontiers in Immunology, 2018):

Tested on: NC/Nga mice
Assay: DNCB-induced atopic dermatitis-like skin lesions
Assay type: in vivo, mouse
Text: Seven-week-old NC/Nga mice were purchased from the Shizuoka Laboratory Animal Center (Shizuoka, Japan) and allowed to adapt to the environment for a week prior to use. The procedures for the induction of atopic dermatitis-like symptoms in mice using 1-chloro-2,4-dinitro-benzene (DNCB) have been well described previously ([27]). Briefly, the dorsal hair of the mice was shaved 2 days before DNCB administration. For the induction of atopic dermatitis, 1% DNCB was applied to the dorsal skin of the mice twice weekly for 7 days and then 0.2% DNCB was applied thrice weekly for 21 days. The mice were divided into the following […] treatment groups (n = 10 per group): 0.3 and 3% Vp2N/day, 0.3 and 3% Vp8N/day, 0.1% dexamethasone/day, and vehicle only, dorsally administered from 9 to 13 weeks of age. As a negative control for atopic dermatitis, NC/Nga mice that were not treated with DNCB were maintained under pathogen-free conditions. Laboratory animal breeding management was based on the “Guide for the Care and Use of Laboratory Animals,” and all experiments were approved by the Institutional Animal Care and Use Committees of Gyeonggi Institute of Science & Technology.

LQSEVEGVKNIMTQNVE [Vp8N, 17-mer peptide, N-terminal region of VAMP8 SNARE motif]
epidermal thickness (0.3 and 3% peptide/day dorsally for 4 weeks, n = 10 per group, versus DNCB/vehicle-treated group (Figure 5C)): significantly reduced | atopic dermatitis features (acanthosis, hypergranulosis, hyperkeratosis) in hematoxylin and eosin-stained sections (0.3 and 3% peptide/day dorsally, 9 to 13 weeks of age, n = 10 per group, compared with 0.1% dexamethasone/day group (Figure 5B)): clearly alleviated to a similar extent | ear thickness (0.3 and 3% peptide/day or 0.1% dexamethasone/day for 4 weeks, n = 10 per group (Figure 5D)): reduced | serum IgE levels (daily dorsal application for 4 weeks, n = 10 per group (Figure 5F)): significantly reduced
